Results from US20210382058A1, “PATIENT SELECTION FOR TREATMENT OF MYC POSITIVE CANCERS WITH INDENOISOQUINOLINES” (Purdue Research Foundation, priority 2020, published 2021).
Read-outs that look alike come from different tables or passages of the source.

Key:
NCI-60 cancer cell lines = assay: NCI-60 cancer cell line drug screen (GI50, MGM); assay type: cell-based, human; conditions: Homo sapiens; for GI50: read-out: Antiproliferative Activities [GI50 (μM)]
Description: Cancer cells were incubated with the test compounds at five concentrations ranging from 100 μM to 10 nM for 48 h. […] The approximate average of GI50 values across the entire panel of NCI-60 cancer cell lines for each compound was recorded as the MGM value.

human topoisomerase I = target: T1, human topoisomerase I (Homo sapiens, UniProt P11387); conditions: relative topoisomerase I inhibition levels, previously determined, six levels (0 - 5, +++++ = 5); cited from earlier work
T1 sequence (P11387 1-765): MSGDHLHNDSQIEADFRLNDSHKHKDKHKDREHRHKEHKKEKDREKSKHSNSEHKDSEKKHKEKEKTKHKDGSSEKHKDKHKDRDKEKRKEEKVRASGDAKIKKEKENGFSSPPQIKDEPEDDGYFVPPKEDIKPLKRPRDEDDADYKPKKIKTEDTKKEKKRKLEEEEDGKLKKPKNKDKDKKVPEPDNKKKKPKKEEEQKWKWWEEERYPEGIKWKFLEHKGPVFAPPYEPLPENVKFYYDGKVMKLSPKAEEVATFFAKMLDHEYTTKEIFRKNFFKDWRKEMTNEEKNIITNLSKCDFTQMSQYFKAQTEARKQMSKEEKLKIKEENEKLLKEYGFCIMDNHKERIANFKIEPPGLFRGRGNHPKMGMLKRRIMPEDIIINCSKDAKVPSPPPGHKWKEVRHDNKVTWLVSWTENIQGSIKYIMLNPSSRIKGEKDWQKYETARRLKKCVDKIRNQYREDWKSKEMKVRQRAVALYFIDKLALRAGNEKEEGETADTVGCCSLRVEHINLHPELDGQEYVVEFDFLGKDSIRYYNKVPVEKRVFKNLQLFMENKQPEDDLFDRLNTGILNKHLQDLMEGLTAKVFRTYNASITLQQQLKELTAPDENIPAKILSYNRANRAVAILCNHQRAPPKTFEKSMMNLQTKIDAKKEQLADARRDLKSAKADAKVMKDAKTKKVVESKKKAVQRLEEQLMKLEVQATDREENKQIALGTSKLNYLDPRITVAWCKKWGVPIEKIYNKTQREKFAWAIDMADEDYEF

[1] = tested on: MYC protein expression in MCF-7 breast cancer cells; assay: Western blotting of MYC protein level in MCF-7 cells; assay type: cell-based, human; conditions: MCF-7, 0.5, 1, 2, and 4 μM, 24 h
Summary of the method: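 MCF-7 cells were exposed to compounds at 0.5, 1, 2 and 4 μM for 24 hours at 37° C. MYC was detected by immunoblot with ECL, using rabbit anti-MYC (1:1000) and anti-GAPDH (1:2000) as loading control.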

`COc1cnc2c(c1)C(=O)c1c-2n(CCCN2CCCC2)c(=O)c2cc([N+](=O)[O-])ccc12` [Compound 9] showed a GI50 (NCI-60 cancer cell lines; 786-0, Renal Cancer, 786-0) of 0.03 µM, a GI50 (NCI-60 cancer cell lines; A549, Non-Small Cell Lung Cancer, A549/ATCC) of 0.05 µM and a GI50 (NCI-60 cancer cell lines; ACHN, Renal Cancer, ACHN) of less than 0.01 µM. It also gave a GI50 (NCI-60 cancer cell lines; BT-549, Breast Cancer, BT-549) of 0.35 µM, a GI50 (NCI-60 cancer cell lines; CAKI-1, Renal Cancer, CAKI-1) of less than 0.01 µM and a GI50 (NCI-60 cancer cell lines; CCRF-CEM, Leukemia, CCRF-CEM) of less than 0.01 µM. It also gave a GI50 (NCI-60 cancer cell lines; COLO 205, Colon Cancer, COLO 205) of 0.04 µM, a GI50 (NCI-60 cancer cell lines; DU-145, Prostate Cancer, DU-145) of 0.02 µM and a GI50 (NCI-60 cancer cell lines; EKVX, Non-Small Cell Lung Cancer, EKVX) of 0.3 µM. It also gave a GI50 (NCI-60 cancer cell lines; HCC 2998, Colon Cancer, HCC-2998) of 0.16 µM, a GI50 (NCI-60 cancer cell lines; HCT-15, Colon Cancer, HCT-15) of 0.06 µM and a GI50 (NCI-60 cancer cell lines; HCT-116, Colon Cancer, HCT-116) of less than 0.01 µM. It also gave a GI50 (NCI-60 cancer cell lines; HL-60, Leukemia, HL-60(TB)) of 0.03 µM, a GI50 (NCI-60 cancer cell lines; HOP-62, Non-Small Cell Lung Cancer, HOP-62) of less than 0.01 µM and a GI50 (NCI-60 cancer cell lines; HOP-92, Non-Small Cell Lung Cancer, HOP-92) of 0.55 µM. It also gave a GI50 (NCI-60 cancer cell lines; HT-29, Colon Cancer, HT29) of 0.02 µM, a GI50 (NCI-60 cancer cell lines; Hs-578T, Breast Cancer, HS 578T) of 1.91 µM and a GI50 (NCI-60 cancer cell lines; IGROV-1, Ovarian Cancer, IGROV1) of 0.02 µM. It also gave a GI50 (NCI-60 cancer cell lines; K562, Leukemia, K-562) of 0.02 µM, a GI50 (NCI-60 cancer cell lines; KM12, Colon Cancer, KM12) of 0.14 µM and a GI50 (NCI-60 cancer cell lines; LOX IMVI, Melanoma, LOX IMVI) of less than 0.01 µM. For the same compound, the GI50 (NCI-60 cancer cell lines; Leukemia, SR) was less than 0.01 µM, the GI50 (NCI-60 cancer cell lines; MCF7, Breast Cancer, MCF7) was less than 0.01 µM and the GI50 (NCI-60 cancer cell lines; MDA-MB-231, Breast Cancer, MDA-MB-231/ATCC) was 0.68 µM. The GI50 (NCI-60 cancer cell lines; MDA-MB-435, Melanoma, MDA-MB-435) was 0.06 µM, the GI50 (NCI-60 cancer cell lines; MDA-MB-468, Breast Cancer, MDA-MB-468) was 0.03 µM and the GI50 (NCI-60 cancer cell lines; MOLT-4, Leukemia, MOLT-4) was less than 0.01 µM. It also gave a GI50 (NCI-60 cancer cell lines; Malme-3M, Melanoma, MALME-3M) of 0.06 µM, a GI50 (NCI-60 cancer cell lines; Melanoma, M14) of less than 0.01 µM and a GI50 (NCI-60 cancer cell lines; NCI-H23, Non-Small Cell Lung Cancer, NCI-H23) of 0.03 µM. It also gave a GI50 (NCI-60 cancer cell lines; NCI-H226, Non-Small Cell Lung Cancer, NCI-H226) of 0.1 µM, a GI50 (NCI-60 cancer cell lines; NCI-H322M, Non-Small Cell Lung Cancer, NCI-H322M) of 0.05 µM and a GI50 (NCI-60 cancer cell lines; NCI-H460, Non-Small Cell Lung Cancer, NCI-H460) of less than 0.01 µM. For the same compound, the GI50 (NCI-60 cancer cell lines; NCI-H522, Non-Small Cell Lung Cancer, NCI-H522) was 0.06 µM, the GI50 (NCI-60 cancer cell lines; OVCAR-3, Ovarian Cancer, OVCAR-3) was 0.06 µM and the GI50 (NCI-60 cancer cell lines; OVCAR-4, Ovarian Cancer, OVCAR-4) was 0.08 µM. It also gave a GI50 (NCI-60 cancer cell lines; OVCAR-5, Ovarian Cancer, OVCAR-5) of 0.16 µM, a GI50 (NCI-60 cancer cell lines; OVCAR-8, Ovarian Cancer, OVCAR-8) of 0.09 µM and a GI50 (NCI-60 cancer cell lines; Ovarian Cancer, NCl/ADR-RES) of 0.03 µM. The GI50 (NCI-60 cancer cell lines; Prostate Cancer, PC-3) was 0.07 µM, the GI50 (NCI-60 cancer cell lines; RPMI-8226, Leukemia, RPMI-8226) was 0.04 µM and the GI50 (NCI-60 cancer cell lines; RXF 393, Renal Cancer, RXF 393) was 0.06 µM. The GI50 (NCI-60 cancer cell lines; Renal Cancer, U0-31) was less than 0.01 µM, the GI50 (NCI-60 cancer cell lines; SF-268, CNS Cancer, SF-268) was 0.02 µM and the GI50 (NCI-60 cancer cell lines; SF-295, CNS Cancer, SF-295) was less than 0.01 µM. The GI50 (NCI-60 cancer cell lines; SF-539, CNS Cancer, SF-539) was 0.03 µM, the GI50 (NCI-60 cancer cell lines; SK-MEL-2, Melanoma, SK-MEL-2) was 1.01 µM and the GI50 (NCI-60 cancer cell lines; SK-MEL-5, Melanoma, SK-MEL-5) was 0.07 µM. For the same compound, the GI50 (NCI-60 cancer cell lines; SK-MEL-28, Melanoma, SK-MEL-28) was 10.6 µM, the GI50 (NCI-60 cancer cell lines; SK-OV-3, Ovarian Cancer, SK-OV-3) was 0.03 µM and the GI50 (NCI-60 cancer cell lines; SN12C, Renal Cancer, SN12C) was 0.04 µM. For the same compound, the GI50 (NCI-60 cancer cell lines; SNB-19, CNS Cancer, SNB-19) was 0.04 µM, the GI50 (NCI-60 cancer cell lines; SNB-75, CNS Cancer, SNB-75) was 0.05 µM and the GI50 (NCI-60 cancer cell lines; SW-620, Colon Cancer, SW-620) was less than 0.01 µM. For the same compound, the GI50 (NCI-60 cancer cell lines; T47D, Breast Cancer, T-47D) was 0.02 µM, the GI50 (NCI-60 cancer cell lines; TK-10, Renal Cancer, TK-10) was 0.37 µM and the GI50 (NCI-60 cancer cell lines; U-251, CNS Cancer, U251) was 0.01 µM. For the same compound, the GI50 (NCI-60 cancer cell lines; UACC-62, Melanoma, UACC-62) was 0.02 µM, the GI50 (NCI-60 cancer cell lines; UACC-257, Melanoma, UACC-257) was 0.18 µM and the mean GI50 across NCI-60 panel (MGM) (NCI-60 cancer cell lines; average of GI50 values across the entire panel of NCI-60 cancer cell lines) was 45 nM. The “Top1 Inhibiton” value (human topoisomerase I) was “++ (medium inhibition, ++, MYC expression inhibited at 2.0 μM, or no clear dose-dependent MYC inhibition)” and the “MYC-inhibitory effect (MYC protein, western blot)” value [1] was “clear MYC-inhibitory effect”.
